Measurements published in patent US20260327195A1, “2-STYRYLBENZOTHIAZOLE DERIVATIVES AS ALPHA-SYNUCLEIN BINDING COMPOUNDS” (Eberhard Karls Universität Tübingen Medizinische Fakultät, priority 2023, published 2026).
Several values for one entry are separate records, joined by “and”; a condition that tells them apart may be missing. Equal values may be shown once. Read-outs that look alike come from different tables or passages of the source.

Key:
[1] = biological target: T1, human recombinant αSYN fibrils (Homo sapiens, UniProt P37840); assay: [3H]MODAG-001 competition binding assay on αSYN fibrils; details: for competition with [3H]MODAG-001: result in words
Method: (§1) Concentrations of αSYN and Aβ1-42 fibrils were as described above.
Plates were incubated on a shaker (MaxQ 6000, Thermo Fisher Scientific Inc., Marietta, OH, USA) at 50 rpm for 2 hours at 37° C., covered by removable sealing tapes (PerkinElmer, Waltham, MA, USA). Vacuum filtration and read-out were performed as disclosed in Kuebler, L. et al., [^11C]MODAG-001-towards a PET tracer targeting α-synuclein aggregates; European Journal of Nuclear Medicine and Molecular Imaging 2020, 48, 1759-1772. […] Data points were fitted using non-linear regression analysis in GraphPad Prism (GraphPad Software, Inc., Version 8.4.0, La Jolla, USA).

[2] = biological target: T1, human recombinant αSYN fibrils; assay: [3H]PiB competition binding assay on αSYN fibrils; details: for Ki: competition against 6 nM [3H]PiB, read-out: Ki (mean ± SEM)
Method: as §1
Plates were incubated on a shaker (MaxQ 6000, Thermo Fisher Scientific Inc., Marietta, OH, USA) at 50 rpm for 2 hours at 37° C., covered by removable sealing tapes (PerkinElmer, Waltham, MA, USA). […] Data points were fitted using non-linear regression analysis in GraphPad Prism (GraphPad Software, Inc., Version 8.4.0, La Jolla, USA).

[3] = biological target: T2, synthetic human Aβ1-42 fibrils (Homo sapiens, UniProt P05067); assay: [3H]PiB competition binding assay on Aβ fibrils; details: result in words; FIG. 4b, 6b
T2 construct: chain cut from APP
Text: The method for Aβ1-42 fibrils generation was adapted from Bagchi, D. P. et al., Binding of the radioligand SIL23 to alpha-synuclein fibrils in Parkinson disease brain tissue establishes feasibility and screening approaches for developing a Parkinson disease imaging agent; PLoS One 2013, 8 (2), e55031, and described in Kuebler, L. et al., [^11C]MODAG-001-towards a PET tracer targeting α-synuclein aggregates; European Journal of Nuclear Medicine and Molecular Imaging 2020, 48, 1759-1772. Synthetic lyophilized human Aβ1-42 peptide (5 mg) with >90% purity (EMC Microcollections, Tuebingen, Germany) was dissolved in DMSO (221.5 μL), followed by the addition of deionized water (4.1 mL) and 1 M Tris-HCl (111 μL, pH 7.6) to reach a final monomeric concentration of 250 μM. Aggregation was induced by incubation in Eppendorf Thermomixer at 37° C. with shaking at 800 rpm for 72 hours. […]
Plates were incubated on a shaker (MaxQ 6000, Thermo Fisher Scientific Inc., Marietta, OH, USA) at 50 rpm for 2 hours at 37° C., covered by removable sealing tapes (PerkinElmer, Waltham, MA, USA). Vacuum filtration and read-out were performed as disclosed in Kuebler, L. et al., [^11C]MODAG-001-towards a PET tracer targeting α-synuclein aggregates; European Journal of Nuclear Medicine and Molecular Imaging 2020, 48, 1759-1772. […]

[4] = biological target: αSYN pathology in MSA human brain slices (Homo sapiens, UniProt P37840); assay: In vitro autoradiography on MSA human brain slices (cerebellum); type: binding
Method: (§2) Post-mortem human brain slices (10 μm thickness) were obtained from and the subject cases were analyzed by the Neurobiobank München (NBM, Munich, Germany), where tissues were collected on the basis of written informed consent according to the guidelines of the ethics committee of the Ludwig-Maximilians-University Munich, Germany (#345-13). The use of brain tissue samples in this study was approved by the ethics committee of the Faculty of Medicine at the University of Tuebingen (Ethics approval number: 813/2018BO2). Table 1 summarizes the information of the subjects from which samples were obtained and used in the experiment.
(§3) For autoradiography, brain slices were thawed for one hour before pre-incubation in BSA buffer for 25 minutes at room temperature. To determine total binding (TB), brain slices were incubated with the tracer (10 nM [^18F]PFSB, 10 nM [^18F]MFSB). Incubation of consecutive slices with the correspondent non-radioactive compounds (10 μM PFSB, […]) was performed to determine non-specific binding (NSB). The non-radioactive compounds were prepared by dissolving in DMSO to 10 mM, which yielded DMSO concentration of ≤0.1% in the final solution. Incubation was carried out for one hour at room temperature with subsequent washing in cold BSA buffer (three times for ten minutes) followed by three dipping in cold deionized water. After drying under UV lamps, brain slices were exposed to a storage phosphor screen (Molecular Dynamics, Caesarea, Israel) for 18 hours, which was then scanned in a phosphor imager (STORM 840, Molecular dynamics, Sunnyvale, CA, USA).
(§4) Quantitative data analysis was performed by drawing four regions of interest (ROIs) in relevant areas of the slice and one ROI next to it for background subtraction (ImageJ 1.8.0_172, National Institute of Health, Bethesda, Maryland, USA) (Schneider, C. A. et al., NIH Image to ImageJ: 25 years of image analysis; Nat Methods 2012, 9 (7), 671-5). Specific binding (SB) is obtained by subtracting NSB from TB. The SB disease/SB control ratio was calculated by dividing by the SB in diseased tissues with the respective SB in control tissues.

[5] = biological target: αSYN pathology in PD human brain slices (Homo sapiens, UniProt P37840); assay: In vitro autoradiography on PD human brain slices (frontal cortex); type: binding; details: 10 nM tracer; NSB with 10 μM non-radioactive compound
Method: as §2
For autoradiography, brain slices were thawed for one hour before pre-incubation in BSA buffer for 25 minutes at room temperature. To determine total binding (TB), brain slices were incubated with the tracer (10 nM [^18F]PFSB, 10 nM [^18F]MFSB). […]
Quantitative data analysis was performed by drawing four regions of interest (ROIs) in relevant areas of the slice and one ROI next to it for background subtraction (ImageJ 1.8.0_172, National Institute of Health, Bethesda, Maryland, USA) (Schneider, C. A. et al., NIH Image to ImageJ: 25 years of image analysis; Nat Methods 2012, 9 (7), 671-5). […] The SB disease/SB control ratio was calculated by dividing by the SB in diseased tissues with the respective SB in control tissues.

[6] = biological target: T3, Aβ plaques in AD human brain slices (Homo sapiens, UniProt P05067); assay: In vitro autoradiography on AD human brain slices (frontal cortex); type: binding
T3 construct: mainly Abeta40/42 cut from APP) in post-mortem AD frontal cortex slices
Method: as §2, §3, §4

[7] = non-methylated compounds, two data points (three for 9a, 14a, 15a, 17a, 18a; single for 12a)
[8] = methylated compounds, two data points
[9] = 10 nM tracer, NSB with 10 μM non-radioactive compound

T3 sequence (P05067 672-713 limits assumed): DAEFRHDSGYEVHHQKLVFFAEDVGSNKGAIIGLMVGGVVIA
T2 sequence (P05067 672-713): as the sequence (P05067 672-713 limits assumed) above

Fc1ccc2nc(C=Cc3ccc(N4CCCCC4)cc3)sc2c1 (mixture of isomers) [Compound 9a, 6-fluoro-2-(4-(piperidin-1-yl)styryl)benzo[d]thiazole]
competition with [3H]MODAG-001 [1]: moderate to good competition

COc1cccc2sc(C=Cc3ccc(N4CCCCC4)cc3)nc12 [Compound 2a, 4-methoxy-2-(4-(piperidin-1-yl)styryl)benzo[d]thiazole]
Ki [2, 7]: > 400 nM

C[n+]1c(C=Cc2ccc(N3CCCCC3)cc2)sc2cccc(F)c21 [Compound 3b, 4-fluoro-3-methyl-2-(4-(piperidin-1-yl)styryl)benzo[d]thiazol-3-ium 4-nitrobenzenesulfonate]
Ki [2, 8]: > 400 nM

Cc1cccc2nc(C=Cc3ccc(N4CCCCC4)cc3)sc12 [Compound 10a, 7-methyl-2-(4-(piperidin-1-yl)styryl)benzo[d]thiazole]
Ki [2, 7]: > 400 nM

COc1cccc2nc(C=Cc3ccc(N4CCCCC4)cc3)sc12 [Compound 11a, 7-methoxy-2-(4-(piperidin-1-yl)styryl)benzo[d]thiazole]
Ki [2, 7]: > 400 nM

C[n+]1c(C=Cc2ccc(N3CCCCC3)cc2)sc2c(F)cccc21 [Compound 12b, 7-fluoro-3-methyl-2-(4-(piperidin-1-yl)styryl)benzo[d]thiazol-3-ium Iodide]
Ki [2, 8]: > 400 nM

C[n+]1c(-c2ccc(N3CCCCC3)cc2)sc2ccccc21 [Compound 13b, 3-methyl-2-(4-(piperidin-1-yl)phenyl)benzo[d]thiazol-3-ium]
Ki [2, 8]: > 400 nM

C(=Cc1nc2ccccc2s1)c1ccc(N2CCOCC2)cc1 [Compound 15a, 4-(4-(2-(benzo[d]thiazol-2-yl)vinyl)phenyl)morpholine]
affinity relative to N-piperidine analog 20 ([2]; result in words): comparable affinity

C[n+]1c(C=Cc2ccc(N3CCOCC3)cc2)sc2ccccc21 [Compound 15b, 3-methyl-2-(4-morpholinostyryl)benzo[d]thiazol-3-ium Iodide]
Ki [2, 8]: > 400 nM

C[n+]1c(C=Cc2ccc(N3CCSCC3)cc2)sc2ccccc21 [Compound 16b, 3-methyl-2-(4-thiomorpholinostyryl)benzo[d]thiazol-3-ium Iodide]
Ki [2, 8]: > 400 nM

C[n+]1c(C=Cc2ccc(N3CCC(F)CC3)cc2)sc2ccccc21 [Compound 18b, 2-(4-(4-fluoropiperidin-1-yl)styryl)-3-methylbenzo[d]thiazol-3-ium Iodide]
Ki [2, 8]: > 400 nM

CN(C)c1ccc(C=Cc2nc3ccccc3s2)cc1 [Compound 19a, 4-(2-(benzo[d]thiazol-2-yl)vinyl)-N,N-dimethylaniline]
Ki [2, 7]: > 400 nM

CN(C)c1ccc(C=Cc2sc3ccccc3[n+]2C)cc1 [Compound 19b, 2-(4-(dimethylamino)styryl)-3-methylbenzo[d]thiazol-3-ium Iodide]
Ki [2, 8]: > 400 nM

Fc1ccc2nc(C=CC=Cc3ccc(N4CCCCC4)cc3)sc2c1 [Compound 43, 6-fluoro-2-(4-(4-(piperidin-1-yl)phenyl)buta-1,3-dien-1-yl)benzo[d]thiazole]
competition with [3H]PiB / binding to Aβ fibrils [3]: the binding to Aβ remained low

Fc1ccc2nc(C=CC=Cc3ccc(N4CCCC4)cc3)sc2c1 [Compound 44, 6-fluoro-2-(4-(4-(pyrrolidin-1-yl)phenyl)buta-1,3-dien-1-yl)benzo[d]thiazole]
competition with [3H]PiB / binding to Aβ fibrils [3]: the binding to Aβ remained low

Fc1ccc2nc(C=Cc3ccc(N4CCOCC4)cc3)sc2c1 [Compound 45, 4-(4-(2-(6-fluorobenzo[d]thiazol-2-yl)vinyl)phenyl)morpholine]
improvement of affinity (Ki) of MFSB compared to PFSB ([2]; [3H]PiB competition, versus PFSB): 2.5 factor | fold lower Ki of MFSB than PFSB ([1]; [3H]MODAG-001 competition, versus PFSB): 4.6 fold | competition with [3H]MODAG-001 [1]: moderate to good competition

CN1CCN(c2ccc(C=Cc3sc4ccccc4[n+]3C)cc2)CC1 [RB2, 3-methyl-2-(4-(4-methylpiperazin-1-yl)styryl)benzo[d]thiazol-3-ium Iodide, reference compound]
Ki [2, 8]: > 400 nM

[18F]c1ccc2nc(/C=C/c3ccc(N4CCCCC4)cc3)sc2c1 [[^18F]PFSB]
SB disease/SB control, MSA1/cerebellum ctrl [4, 9]: 3.73 | SB disease/SB control, MSA2/cerebellum ctrl [4, 9]: 4.15 | specific binding ratio of MSA brain slices compared to the control ([4]; MSA patients, same brain area, 10 nM tracer): 3.94±0.30 | selectivity towards αSYN over Aβ ([4]; autoradiography, result in words, FIG. 12): selectivity towards αSYN over Aβ | affinity to αSYN pathology ([4]; result in words, FIG. 12): displayed affinity to αSYN pathology | SB disease/SB control, PD/frontal cortex ctrl [5]: 1.51 | SB disease/SB control, AD/frontal cortex ctrl [6, 9]: 1.06 and 1.03 | binding in AD brain regions with Aβ plaques / AD/frontal cortex SB ratio in words ([6]; result in words, FIG. 12): no increased binding
